Results as given in publication PMC11285371 (Journal of medicinal chemistry, 2023).
Several values for one entry are separate records, joined by “and”; a condition that tells them apart may be missing. Identical values can stand only once. Entries after “also recorded” stand apart in the source; their conditions may differ.

What was measured:
[1] = tested on: drug-tolerant Mtb persisters; format: cell-based, Mycobacterium tuberculosis
[2] = tested on: Mtb H37Rv strain expressing GFP; assay: microbe, parasite or virus in culture; format: cell-based; conditions: Mycobacterium tuberculosis
[3] = 0.5 h
TGFBR1 [4] = molecular target: T1, TGFBR1 (Homo sapiens, UniProt P36897); format: biochemical
T1 sequence (P36897 34-503): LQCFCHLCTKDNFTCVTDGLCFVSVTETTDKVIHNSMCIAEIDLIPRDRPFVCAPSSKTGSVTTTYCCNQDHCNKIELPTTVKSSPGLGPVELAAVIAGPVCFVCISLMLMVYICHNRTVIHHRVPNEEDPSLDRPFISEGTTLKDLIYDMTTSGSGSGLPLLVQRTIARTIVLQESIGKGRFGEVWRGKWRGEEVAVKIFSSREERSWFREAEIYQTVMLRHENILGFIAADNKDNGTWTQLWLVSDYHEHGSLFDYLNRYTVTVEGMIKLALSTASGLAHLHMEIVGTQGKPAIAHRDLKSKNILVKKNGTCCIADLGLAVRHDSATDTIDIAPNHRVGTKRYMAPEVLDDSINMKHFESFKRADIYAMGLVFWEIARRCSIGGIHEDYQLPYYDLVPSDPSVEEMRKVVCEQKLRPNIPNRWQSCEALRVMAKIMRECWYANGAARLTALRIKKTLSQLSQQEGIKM

Mtb H37Rv::luxCDAB = format: cell-based, Mycobacterium tuberculosis
in vivo = conditions: CD1, mouse, po, 10 mg/kg, T1/2
192 human kinases = conditions: 10 μM, K192 NanoBRET panel
[5] = cited from earlier work
15 mammalian cell lines = conditions: cited from earlier work
[6] = tested on: Cas1 glioblastoma cell line; conditions: cited from earlier work
TGFBR1 [7] = molecular target: T1, TGFBR1; assay: TGFBR1 DiscoverX KINOMEscan binding assay

SMILES | metabolic stability in mouse liver microsomes (in words) [3] | activity in the Mtb assay (in words) (Mtb H37Rv::luxCDAB) | other results
CC[C@@H](CO)NCCN[C@@H](CC)CO [EMB, ethambutol] |  |  | killing of persisters (cfu, in words) [1]: did not increase the level of killing by RIF and INH further
NNC(=O)c1ccncc1 [isoniazid] |  |  | MIC [2]: 3.6 µM and 0.5 µg/mL
Cc1cccc(-c2nc(Nc3ccc4nnn(C)c4c3)c3ccccc3n2)n1 [compound 17] | very low metabolic stability |  | 
Cc1cccc(-c2nc(C)cc(Nc3ccncc3)n2)n1 [compound 44] |  | retained partial Mtb and TGFBR1 activity | TGFBR1 enzyme inhibition (in words) (TGFBR1 [4]): retained partial Mtb and TGFBR1 activity
COc1cccc(-c2nc(Nc3ccncc3)c3ccccc3n2)n1 [compound 28] |  | greatly reduced activity | 
c1cncc(-c2nc(Nc3ccncc3)c3ccccc3n2)c1 [compound 30] |  | inactive | 
Cc1cccc(-c2cc3ccccc3c(Nc3ccncc3)n2)n1 [compound 45] |  | weaker activity | 
COc1ccc2c(Nc3ccncc3)nc(-c3cccc(C)n3)nc2c1 [compound 42] |  | less active | 
Cc1cccc(-c2nc(Nc3ccc4nn[nH]c4c3)c3ccccc3n2)n1 [compound 14] |  |  | antibacterial activity against nonreplicating Mtb (in words, relative to AQA) (Mtb H37Rv::luxCDAB): reduced bactericidal activity
Cc1csc(-c2nc(Nc3ccncc3)c3ccccc3n2)n1 [compound 39] |  | lost activity against Mtb | 
Fc1cccc(-c2nc(Nc3ccncc3)c3ccccc3n2)n1 [compound 26] |  | reduced activity | 
c1ccc(-c2nc(Nc3ccncc3)c3ccccc3n2)nc1 [compound 29] | comparable | reduced activity | 
c1cnc(-c2nc(Nc3ccncc3)c3ccccc3n2)nc1 [compound 33] |  | greatly reduced Mtb activity | 
Cc1cccc(-c2nc(Nc3ccc4c(cnn4C)c3)c3ccccc3n2)n1 [compound 12] | very low metabolic stability |  | 
c1ccc2c(Nc3ccncc3)nc(-c3cnccn3)nc2c1 [compound 31] |  | greatly reduced Mtb activity | 
Cc1cccc(-c2nc(Nc3ccncc3)c3cc(O)ccc3n2)n1 [compound 41] | improved metabolic stability | less active | 
Clc1cccc(-c2nc(Nc3ccncc3)c3ccccc3n2)n1 [compound 25] | comparable | retained potent antibacterial activity; also recorded: matched the activity of AQA in the Mtb assay | 
Cc1cccc(-c2nc(Nc3ccc4nn(C)nc4c3)c3ccccc3n2)n1 [compound 16] |  |  | half-life (in vivo): > 3 h
Cc1cccc(-c2nc(Nc3ccncc3)c3ccn(C)c3n2)n1 [compound 43] |  | retained potent Mtb activity; also recorded: matched the activity of AQA in the Mtb assay; also recorded: low-micromolar activity against nonreplicating Mtb | additional human kinases on which the compound was active (192 human kinases): 7/192
Cc1cccc(-c2nc(Nc3ccncc3)c3ccccc3n2)n1 [AQA] |  |  | acute toxicity (in words) ([5]; 5 mg/kg p.o. in rats): no acute toxicity; bioavailability (in words) ([5]; 5 mg/kg p.o. in rats): poor; oral bioavailability (in words) ([5]; rats): modest oral bioavailability; toxicity against mammalian cell lines (in words) (15 mammalian cell lines): minimal toxicity; killing of persisters (cfu, in words) [1]: further reduction of viable bacteria; also recorded: full activity against persisters; toxicity against Cas1 glioblastoma cell line (in words) [6]: moderate toxicity
Cc1cccc(-c2nc(Nc3ccc4[nH]ncc4c3)c3ccccc3n2)n1 [compound 11] | very low metabolic stability |  | 
FC(F)(F)c1cccc(-c2nc(Nc3ccncc3)c3ccccc3n2)n1 [compound 27] |  | reduced activity | 
Cc1cccc(-c2nc(Nc3ccc4c(c3)ncn4C)c3ccccc3n2)n1 [compound 10] |  |  | antibacterial activity against nonreplicating Mtb (in words, relative to AQA) (Mtb H37Rv::luxCDAB): reduced bactericidal activity
COc1ccc2nc(-c3cccc(C)n3)nc(Nc3ccncc3)c2c1 [compound 40] | improved metabolic stability | retained both potent bactericidal activity and TGFBR1 enzyme inhibition at 1 and 10 μM; also recorded: matched the activity of AQA in the Mtb assay | 
Cc1cccc(-c2nc(Nc3ccc4nc(C)sc4c3)c3ccccc3n2)n1 [compound 7] | very low metabolic stability |  | TGFBR1 binding activity (in words) (TGFBR1 [7]): lost activity against TGFBR1
Cc1cccc(-c2cc(Nc3ccncc3)c3ccccc3n2)n1 [compound 46] |  | weaker activity | 
COc1cncc(-c2nc(Nc3ccncc3)c3ccccc3n2)n1 [compound 32] |  | greatly reduced Mtb activity | 
Cc1cccc(-c2nc(Nc3ccc4ccsc4c3)c3ccccc3n2)n1 [compound 22] | very low metabolic stability |  | 
